Columns and labels:
[1] = test system: HCT116 human colon carcinoma xenograft with null p53 (HCT116 p53−/−); experiment: HCT116 p53-/- xenograft, single agent and combination with cisplatin or vincristine; format: in vivo, female athymic nude mice; settings: for % TGD (tumor growth delay) / time to study endpoint (TTE): endpoint tumor volume of 1000 mm^3, CROMOC36 as single agent or in combination; for time to study endpoint (TTE): control Day 23; for tumor growth inhibition: single-agent reference, q7dx5 (CDDP 4 mg/kg, VCR 2 mg/kg)
Description: A study was conducted to evaluate the efficacy and tolerability of CROMOC36 against an HCT116 human colon carcinoma xenograft model with null p53 (HCT116 p53−/−) in female athymic nude mice. CROMOC36 was administered subcutaneously (s.c.) three times at intervals of two weeks (q14dx3) as a single agent or in combination with cisplatin (CDDP) at 4 mg/kg or vincristine (VCR) at 2 mg/kg which were both administered five times at intervals of one week (q7dx5). CROMOC36 was tested at 32 mg/kg or using a decreasing dosage of 32-16-16 mg/kg. CDDP and VCR were also administered as single agents to allow comparison of the efficacy of CROMOC36 with commonly used anticancer drugs. The dose and schedule of CDDP and VCR treatments remained the same when tested as single agents or in combination with CROMOC36. […] Efficacy was also evaluated by measuring the tumor growth delay (TGD) and the number of regression responses.

[2] = test system: murine Lewis lung carcinoma; experiment: Lewis lung carcinoma (LLC) model, primary tumor growth and metastasis
Description: The efficacy of CROMOC36 on the Lewis lung carcinoma (LLC) model, was selected for testing the activity of CROMOC36 against primary tumor growth and metastasis formation. CROMOC36 was tested as a single agent and in combination with Cyclophosphamide (CYPP). In addition, single-agent CYPP was used as a reference compound, allowing comparison of the efficacy of CROMOC36 with a commonly used antitumor agent (summarized in FIG. 9).

[3] = test system: M5076 ovarian reticulum sarcoma tumor cell line; experiment: M5076 artificial hepatic metastasis model, i.v. route; settings: CROMOC36 16 mg/kg i.v. q7dx3; Doxorubicin 6 mg/kg q4dx3 (MTD)
[4] = test system: IMR32 human neuroblastoma xenograft; experiment: IMR32 human neuroblastoma xenograft model; format: in vivo, mice; settings: single agent, q14dx2; CROMOC36 32 mg/Kg s.c.; doxorubicin 8 mg/kg i.v.
Text: FIG. 11: IMR32 s.c. implanted. Treatment on xenograft mice with advanced tumors (volume >50 mm^3). Variation in tumor volume expressed as percentage with respect to initial volume (day 0; designated as 100%). Final measurements for vehicle (PBS) and Doxorubicin groups were taken on day 42. For the remaining groups, final measurements were taken on day 63, the termination day of the experiment. Growth reduction compared to controls on day 42 (p<0.01).
The aim of this study was to assess the in vivo efficacy of CROMOC36 on a IMR32 human neuroblastoma xenograft model. CROMOC36 was administered subcutaneously (s.c.) at intervals of two weeks (q14dx2) at two different doses (32 mg/Kg) and also in combination with doxorubicin administered intravenously (i.v.) (32/kg CROMOC36+4+4 mg/Kg doxorubicin, s.c and i.v., q14dx2). Doxorubicin was also used alone as a reference compound (8 mg/kg, i.v., q14dx2). Vehicle was PBS.

HEP3B = experiment: Monolayer assay, 96h treatment, HEP3B; format: cell-based, human; settings: Homo sapiens
Description: (§1) Monolayer Assay Propidium Iodid (PI). Cells were harvested from exponential phase cultures, counted and depending on the cell line 3.000 to 20.000 cells were plated in 96-well flat-bottom microtiter plates After a 24 h recovery period to allow cells to resume exponential growth, 10 μl of culture medium (four control wells/plate) or culture medium with the test compound were added by a liquid handling robotic system and treatment continued for four days. Compounds were applied in half-log increments at 10 concentrations in duplicate. Three independent experiments were performed. Cells were then washed with 200 μl PBS to remove dead cells followed by addition of 200 μl of a solution containing 7 μg/ml propidium iodide (PI) and 0.1% (v/v) Triton X-100. After an incubation period of 1-2 h at room temperature, fluorescence (FU) was measured using the Cytofluor 4000 microplate reader (excitation λ=530 nm, emission λ=620 nm) to quantify the amount of attached viable cells. Concentrations required for 50% inhibition of cell growth (IC50) were calculated by non-linear regression (log[conc. of inhibitor]versus response (% T/C)) using the analysis software GraphPad Prism®, Prism 5 for windows, version 5.01 (GraphPad Software Inc., CA).
(§2) CROMOC36—in vitro activity Human hepatocellular carcinoma cell lines IC50 values of CROMOC36 and Sorafenib, 96h treatment. […]

HEPG2 = experiment: Monolayer assay, 96h treatment, HEPG2; format: cell-based, human; settings: Homo sapiens; HEPG2, 96h treatment
Description: as §1, §2

LIXF 575L = experiment: Monolayer assay, 96h treatment, LIXF 575L; format: cell-based, human; settings: Homo sapiens
Description: as §1, §2

[5] = test system: Human hepatocellular carcinoma cell lines; experiment: Monolayer assay, human hepatocellular carcinoma cell lines, 96h treatment (geomean of three lines); format: cell-based; settings: Homo sapiens; three HCC cell lines, 96h treatment
Description: as §1
CROMOC36—in vitro activity Human hepatocellular carcinoma cell lines IC50 values of CROMOC36 and Sorafenib, 96h treatment. […] The individual results for CROMOC36 are included in FIG. 24. […] The individual results for Sorafenib are included in (FIG. 24).

[6] = test system: human pancreatic tumor cell lines; experiment: Propidium iodide based monolayer proliferation assay, panel of 13 human pancreatic tumor cell lines; settings: Homo sapiens, 96 h; 13 pancreatic cell lines, four days treatment; read-out: geomean IC50
Description: as §1
CROMOC36—in vitro activity Human pancreatic carcinoma cell lines. The aim of this study was to investigate the antitumor activity of CROMOC36 in vitro on a panel of 13 human pancreatic tumor cell lines. Antitumor activity was assessed after four days of CROMOC36 treatment using a propidium iodide based monolayer proliferation assay. Up to four experiments were performed in each cell line, testing CROMOC36 at ten concentrations in half-log increments up to 1 μM. Taxol, an antitumor agent commonly used for the treatment of pancreatic cancer, was used as a reference compound and tested in half-log steps up to 0.3 μM.

Osteosarcoma (U2OS) cell = experiment: Monolayer Sulphorhodamine B (SRB) staining assay, 72 hours, preCROMOC-DDM fusion molecules; format: cell-based, human; settings: CPP fused to preCROMOC
Description: Cells were harvested from exponential phase cultures, and depending on the cell line 10.000 to 30.000 cells were plated in 96-well flat-bottom microtiter plates. After a 24 h recovery period to allow cells to resume exponential growth, supernatant was discarded and 100 μl of culture medium (eight control wells/plate) or culture medium with the test compound were added by a liquid handling robotic system (Microlab® Starlet, Hamilton) and treatment continued for 72 hrs. Compounds were applied at 9 concentrations eight wells/concentration). At least three independent experiments were performed. For SRB staining, cells were fixed with SRB01 for 1h at 4° C. (final concentration of TCA=10%) washed with a plate washer (Hydroflex, Tecan©) for five times with H2O; and stained with 100 μl of SRB02 at room temperature for 10 min following 4 washes in SRB03 and finally 100 μl of developer solution SRB04 for 5 minutes with shaking. Optical density was assessed using a plate-reader (Sunrise, Tecan©) at 540 nm. Concentrations required for 50% inhibition of cell growth (IC50) were calculated by non-linear regression (log[conc. of inhibitor] versus response (% T/C)) using the analysis software GraphPad Prism®, Prism 5 for windows, version 5.01 (GraphPad Software Inc., CA). (SRB Buffers FIG. 25).

[7] = test system: human colon carcinoma with null p53 (HCT116 p53−/−) xenograft; experiment: HCT116 p53-/- xenograft, CROMOC36 versus nuclease impaired CROMOC60; format: in vivo, mouse; settings: s.c. 4 mg/kg on days 0, 1, 2, 3, 6, 7, 8, 9, 10, 20, 22, 24
Description: FIG. 7: HCT116 p53−/− human colon carcinoma xenograft. Treatment on advanced tumors (volume >50 mm^3). Dose: CROMOC36 4 mg/kg; CROMOC60 4 mg/kg. Treatment: s.c. administration on day 0, 1, 2, 3, 6, 7, 8, 9, 10, 20, 22, 24.
A study was conducted to test the antitumor efficacy of CROMOC36 on an advanced human colon carcinoma with null p53 (HCT116 p53−/−) xenograft model and compare it to a vehicle or a nuclease impaired version CROMOC60 treatment group. CROMOC60 is no more catalytically active as a nuclease but is able to be transported to the nucleus of a cell. This study was also designed to proof that the active principle of the tumor growth inhibiting activity of CROMOC is the nuclease activity in vivo. CROMOC36 and CROMOC60 were both administered subcutaneously (s.c.) at 4 mg/kg dose on the days 0, 1, 2, 3, 6, 7, 8, 9, 10, 20, 22, 24. […] This also proofs that CROMOC36 can serve as a valid DNA DSB reagent.

[NH2][Pt]([NH2])([Cl])[Cl] [CDDP, cisplatin, reference compound]
% TGD (tumor growth delay) [1]: 48%
time to study endpoint (TTE) [1]: 34 days
tumor growth inhibition [1]: 47.2%

O=P1(N(CCCl)CCCl)NCCCO1 (centres unmarked) [CYPP, Cyclophosphamide, reference compound]
inhibition of number of metastases ([2]; CYPP single agent, 180 mg/kg): 62%
tumor growth inhibition (TI), primary tumor ([2]; single agent, CROMOC36 s.c. q2dx5): 78.6%

COc1cccc2c1C(=O)c1c(O)c3c(c(O)c1C2=O)C[C@@](O)(C(=O)CO)C[C@@H]3O[C@H]1C[C@H](N)[C@H](O)[C@H](C)O1 [Doxorubicin, reference compound]
% ILS (mean survival time versus control group) [3]: 32%
tumor growth inhibition (TGI) compared to controls [4]: 10%

CNC(=O)c1cc(Oc2ccc(NC(=O)Nc3ccc(Cl)c(C(F)(F)F)c3)cc2)ccn1 [Sorafenib, reference compound]
IC50 (HEP3B): 2.83 µM
IC50 (HEPG2): 5.97 µM
IC50 (LIXF 575L): 6.07 µM
IC50 [5]: 4.68 µM

CC(=O)O[C@H]1C(=O)[C@@]2(C)[C@H]([C@H](OC(=O)c3ccccc3)[C@]3(O)C[C@H](OC(=O)[C@H](O)[C@@H](NC(=O)c4ccccc4)c4ccccc4)C(C)=C1C3(C)C)[C@]1(OC(C)=O)CO[C@@H]1C[C@@H]2O [Taxol, reference compound]
IC50 [6]: 0.00199 µM

CC[C@]1(O)C[C@H]2CN(CCc3c([nH]c4ccccc34)[C@@](C(=O)OC)(c3cc4c(cc3OC)N(C=O)[C@H]3[C@@](O)(C(=O)OC)[C@H](OC(C)=O)[C@]5(CC)C=CCN6CC[C@]43[C@@H]65)C2)C1 [VCR, vincristine, reference compound]
% TGD (tumor growth delay) [1]: 52%
time to study endpoint (TTE) [1]: 35 days
tumor growth inhibition [1]: 45.4%

GNSGSGKKKKKGKGSGLGSGKKKDPLGSGLGSGKKKKKGKGSGLGSGKKKDPLGST (peptide, DDM36)
activity in the SRB assay compared with TAT, Pentratin, and Transportan (Osteosarcoma (U2OS) cell): orders of magnitude higher activity

B1: CROMOC60: nuclease impaired version; no more catalytically active as a nuclease but able to be transported to the nucleus (protein)
chain: MSHPDLNKLLELWPHIQEYQDLALKHGINDIFQDNGGKLLQVLLITGLTVLPGREGNDAVDNAGQEYELKSINIDLTAGFSTHHHMNPVIIAKYRQVPWIFAIYRGIAIEAIYRLEPKDLEFYYDKWERKWYSDGHKDINNPKIPVKYVMEHGTKIYGSGGSGGSSHPDLNKLLELWPHIQEYQDLALKHGINDIFQDNGGKLLQVLLITGLTVLPGREGNDAVDNAGQEYELKSINIDLTAGFSTHHHMNPVIIAKYRQVPWIFAIYRGIAIEAIYRLEPKDLEFYYDKWERKWYSDGHKDINNPKIPVKYVMEHGTKIYGNSGSGKKKKKGKGSGLGSGKKKDPLGSGLGSGKKKKKGKGSGLGSGKKKDPLGST
modifications: peptide, CROMOC60
progression of HCT116 p53−/− human colon carcinoma as compared to vehicle control [7]: not

Reference: patent US20250295796A1, “CELL PENETRATING POLYPEPTIDES (CPPS) AND THEIR USE IN HUMAN THERAPY” (RDP PHARMA AG, priority 2021, published 2025)
